Values after ≈ are worked out from the molar mass of the structure shown.
What was measured:
[1] = Rapid screening of radical scavenging activity by dot blot assay (DPPH staining); conditions: silica sheet stained with DPPH in MeOH, dilutions from 1000 μg/mL
Procedure: An aliquot (20 μL) of each dilution of each group was carefully loaded on a […] TLC plate and allowed to dry for 10 min. Drops of each sample were loaded in the order of decreased concentration along the 16 columns. The staining of the silica plate was based on the procedure of Soler-Rivas et al.. […] The intensity of the yellow color depends upon the amount and nature of radical scavenger present in the flavonoids.

[2] = DPPH radical scavenging assay; conditions: 30 min, 517 nm, mean ± SEM (n = 3)
Procedure: Each sample's stock solution was diluted to final concentrations of 1000–0.4889 μg/mL in MeOH. A total of 1 mL of a 0.3 mM DPPH methanolic solution was added to 2.5 mL of sample solution of different concentrations and allowed to react at room temperature. After 30 min, the absorbance (Abs) values were measured at 517 nm with a microplate reader (Tecan NanoQuant Infinite M200, Switzerland) and converted into the percentage antioxidant activity using the following equation described previously: (1) % antioxidant activity=100−Abssample−Abssample blank/Abscontrol−Abscontrol blank×100. MeOH + compound solution was used as a blank, while DPPH solution plus MeOH was used as a negative control. The positive controls were DPPH solution plus 1 mM ascorbic acid. The IC50 values were calculated by linear regression of plots. The average percent of scavenging capacity was taken from three replicates.

[3] = ABTS+ radical scavenging assay; conditions: 734 nm, mean ± SEM (n = 3)
Procedure: An improved ABTS^+ radical decolorization assay was carried out involving direct production of the blue/green ABTS^+ chromophore through the reaction between ABTS and potassium persulfate. Addition of antioxidant to the preformed radical cation reduces it to ABTS to an extent on a time scale depending on the antioxidant activity, the concentration of the antioxidant, and the duration of the reaction. 1 ml ABTS was dissolved in water to make 7 mM concentration of the resultant solution. […] The resultant reaction mixture was allowed to stand in the dark at room temperature for 12–16 h before being used. The ABTS^+ radical solution was diluted with MeOH to an absorbance of 0.7 (±0.02) at 734 nm. Then, 100 μl of sample at various concentrations (1000–0.4889 μg/mL) was mixed with 100 μL of diluted ABTS^+ radical. Each concentration was analyzed in triplicate and the percentage decrease of absorbance at 734 nm with a microplate reader (Tecan NanoQuant Infinite M200, Switzerland) was calculated for each point and the antioxidant capacity of the tested compounds was expressed as percent inhibition (%). The radical scavenging activity of the compounds was measured according to the following equation [29]:(2) % inhibition=Acontrol−Asample/Acontrol×100. IC50 values were calculated by linear regression of plots, and the average percent of scavenging capacity was taken from three replicates. Trolox was used as a standard in comparison for the determination of the antioxidant activity of the flavonoids.

[4] = Ferric reducing antioxidant power (FRAP); conditions: for FRAP (AAE μg): ascorbic acid equivalent, mean ± SEM (n = 3), Table 2
Procedure: This assay was based on the reduction of the ferric tripyridyltriazine (Fe III-TPTZ) complex to the ferrous ion (Fe II) at a low pH forming an intense blue color. In the FRAP assay, compounds that are rich in antioxidant effect exert their action by breaking the free radical chain by donating a hydrogen atom. Briefly, ferric reducing antioxidant power (FRAP) reagent (2.5 mL of a 10 mM TPTZ solution in 40 mM HCl, 2.5 mL of 20 mM FeCl3, and 25 mL of 0.1 M acetate buffer pH 3.6) was prepared and incubated for 10 min at 37°C. Then 20 μL of each compound and ascorbic acid (standard) and 40 μL of FRAP reagent were added to 140 μL of distilled water in a 96-well plate producing a blue-colored solution. The solutions were kept at room temperature for 20 min in the dark and then measured at 593 nm with a microplate reader (Tecan, Switzerland) using a reagent blank composed of 40 μL of FRAP reagents in 200 μL of distilled water. A calibration curve was prepared with a serial dilution of ascorbic acid (standard). The total antioxidant capacity was calculated by interpolating the measured absorbance of the calibration curve and expressed as ascorbic acid equivalents. The results were corrected for dilution and expressed as AAE μg of ascorbic acid/g.

[5] = target: α-glucosidase from Saccharomyces cerevisiae; experiment: α-Glucosidase inhibitory assay; assay type: biochemical; conditions: Table 3; mean ± SEM (n = 3); NA: not active
Procedure: α-Glucosidase inhibitory activity of the flavonoids was carried out according to the standard method with minor modification. […] A solution of 30 mM phosphate buffer (pH 6.5) was used to prepare stock solution of the sample to form a final concentration of 160 μg/mL. Then, 10 μL/well of sample was mixed with 15 μL/well of α-glucosidase from Saccharomyces cerevisiae (Megazyme, Ireland). 50 mM buffer (pH 6.5) was used to prepare the enzyme solution. Then, 115 μL/well of 30 mM buffer (pH 6.5) was added and incubated for 5 min at room temperature. Then, 75 μL/well of PNP-glucoside was added to initiate reaction and incubated at room temperature for 15 min. Finally, about 50 μL glycine at pH 10 was added to stop the reaction. The final volume of 250 μL of compound, positive control, enzyme, 30 mM buffer, and substrate was located in 96-well microplate. The absorbance (Abs) was measured using microplate reader (Tecan NanoQuant Infinite M200, Switzerland) at 405 nm to represent the amount of p-nitrophenol released from PNP-glucoside. […] The equation given below was used to calculate the inhibitory activity (%):(4) Inhibitory activity%=Abs control−Abs sample/Abs control×100%.
Tested on yeast α-glycosidase, the reaction is initiated by reacting the inhibitor (sample) with the α-glycosidase enzyme that competes with […] for the binding site, thus releasing ρ-nitrophenol which was measured in the assay.

[6] = target: T1, DPP-4 (Homo sapiens, UniProt P27487); experiment: Dipeptidyl peptidase IV (DPP-4) inhibitory assay; assay type: biochemical; conditions: Table 3; mean ± SEM (n = 3); NA: not active
T1 construct: purchased Cayman (Michigan, USA)
T1 sequence (P27487 whole entry): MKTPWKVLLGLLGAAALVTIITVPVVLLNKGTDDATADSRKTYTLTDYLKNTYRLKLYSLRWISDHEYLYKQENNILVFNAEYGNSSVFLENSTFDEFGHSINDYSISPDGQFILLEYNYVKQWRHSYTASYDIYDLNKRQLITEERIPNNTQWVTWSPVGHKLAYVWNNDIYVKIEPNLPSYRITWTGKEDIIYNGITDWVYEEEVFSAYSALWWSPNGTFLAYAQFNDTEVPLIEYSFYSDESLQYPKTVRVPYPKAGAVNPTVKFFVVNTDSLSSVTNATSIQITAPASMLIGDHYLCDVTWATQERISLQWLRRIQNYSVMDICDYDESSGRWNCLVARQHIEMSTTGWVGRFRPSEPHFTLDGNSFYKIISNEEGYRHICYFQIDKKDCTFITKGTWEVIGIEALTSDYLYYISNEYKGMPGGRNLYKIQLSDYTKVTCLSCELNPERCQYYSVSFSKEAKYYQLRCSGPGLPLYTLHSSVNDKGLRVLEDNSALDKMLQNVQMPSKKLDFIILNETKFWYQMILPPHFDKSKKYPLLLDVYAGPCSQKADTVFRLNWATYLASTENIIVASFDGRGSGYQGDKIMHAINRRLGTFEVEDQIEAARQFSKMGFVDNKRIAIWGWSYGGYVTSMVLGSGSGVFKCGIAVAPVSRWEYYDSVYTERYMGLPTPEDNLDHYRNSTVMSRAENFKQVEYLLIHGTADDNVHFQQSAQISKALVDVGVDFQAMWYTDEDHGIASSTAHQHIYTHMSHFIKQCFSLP
Procedure: Dipeptidyl peptidase (IV) inhibitors work by inhibiting the action of this enzyme, thereby prolonging the activity of incretins that play an important role in insulin secretion and blood glucose control regulation. DPP-4 inhibitory assay was performed as per the standard method (Cayman, USA). Firstly, 1 mg of sample was dissolved in 10% of DMSO and MeOH as the stock solution. For initial activity (100%), 10 μL of MeOH, 30 μL of diluted assay buffer, and 10 μL of diluted DPP-4 (Cayman, USA) were added to 96-well microplate. […] For background well, 10 μL of MeOH and 40 μL of diluted assay buffer were added. Then, 10 μL of prepared sample and 30 μL of diluted assay buffer were added with 10 μL of diluted DPP-4. After that, 50 μL of substrate solution was added to all wells to initiate the reaction and further incubated in the dark at 37°C for 30 min. Finally, plate was read at 360 nm of excitation wavelength and 465 nm of emission wavelength using fluorescence microplate reader (Perkin Elmer, Germany). All determinations were done in triplicate and half maximal concentration (IC50) values were calculated from the percentage of inhibition based on the linear regression analysis. The equation given below was applied to calculate the inhibitory activity (%):(5) Inhibitory activity%=Initial Activity−Sample/Initial Activity×100%.
For DPP-4 inhibitory assay, the reaction is based on the cleavage of the peptide bond by DPP releasing the free Gly-Pro-aminomethylcoumarin group, a fluorogenic substrate resulting in fluorescence excitation and emission.

[7] = target: T2, xanthine oxidase from buttermilk (Bos taurus, UniProt P80457); experiment: Xanthine oxidase inhibitory assay (XOI); assay type: biochemical
T2 construct: 0.3 U/mL enzymes (xanthine oxidase from buttermilk); purchased Sigma-Aldrich (Singapore); host or cells: buttermilk (natural source)
T2 sequence (P80457 whole entry): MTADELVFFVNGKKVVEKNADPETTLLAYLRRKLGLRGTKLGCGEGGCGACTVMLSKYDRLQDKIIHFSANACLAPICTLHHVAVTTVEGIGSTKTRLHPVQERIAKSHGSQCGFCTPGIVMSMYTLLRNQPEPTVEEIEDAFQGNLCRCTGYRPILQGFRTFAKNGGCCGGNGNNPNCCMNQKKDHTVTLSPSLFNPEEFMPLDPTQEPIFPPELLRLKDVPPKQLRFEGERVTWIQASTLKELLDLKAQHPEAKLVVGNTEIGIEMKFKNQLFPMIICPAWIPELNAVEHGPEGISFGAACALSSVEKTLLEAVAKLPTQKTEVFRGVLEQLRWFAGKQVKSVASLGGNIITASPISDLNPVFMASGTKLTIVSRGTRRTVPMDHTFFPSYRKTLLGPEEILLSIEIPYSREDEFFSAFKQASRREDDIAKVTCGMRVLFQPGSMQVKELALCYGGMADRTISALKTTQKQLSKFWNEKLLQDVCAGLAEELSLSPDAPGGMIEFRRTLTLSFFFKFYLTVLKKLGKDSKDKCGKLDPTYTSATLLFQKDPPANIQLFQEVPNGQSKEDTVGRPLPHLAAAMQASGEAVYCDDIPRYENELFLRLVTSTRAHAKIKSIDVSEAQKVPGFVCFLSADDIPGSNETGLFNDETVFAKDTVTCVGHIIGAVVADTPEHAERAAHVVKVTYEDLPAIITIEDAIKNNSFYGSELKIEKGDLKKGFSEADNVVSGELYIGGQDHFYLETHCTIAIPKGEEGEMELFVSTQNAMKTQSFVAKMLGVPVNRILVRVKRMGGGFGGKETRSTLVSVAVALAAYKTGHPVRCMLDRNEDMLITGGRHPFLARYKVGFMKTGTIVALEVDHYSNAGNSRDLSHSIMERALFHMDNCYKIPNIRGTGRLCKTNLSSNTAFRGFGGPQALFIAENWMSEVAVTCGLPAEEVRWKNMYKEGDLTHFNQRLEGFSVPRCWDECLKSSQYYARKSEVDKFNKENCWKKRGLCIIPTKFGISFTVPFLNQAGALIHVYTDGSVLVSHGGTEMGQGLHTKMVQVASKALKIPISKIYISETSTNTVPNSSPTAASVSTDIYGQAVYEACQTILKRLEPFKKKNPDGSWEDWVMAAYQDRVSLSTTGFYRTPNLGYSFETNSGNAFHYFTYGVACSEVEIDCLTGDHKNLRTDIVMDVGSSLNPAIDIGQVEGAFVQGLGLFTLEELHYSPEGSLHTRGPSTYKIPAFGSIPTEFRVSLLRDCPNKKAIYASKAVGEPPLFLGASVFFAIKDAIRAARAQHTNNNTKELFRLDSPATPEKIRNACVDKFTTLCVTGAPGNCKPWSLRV
Procedure: XO catalyzes the oxidation of hypoxanthine to xanthine and subsequently to uric acid. The inhibition of XO reduces both vascular oxidative stress and circulating levels of uric acid. This assay is based on the fact that the superoxide anions are generated by the xanthine. The xanthine oxidase inhibitory activity was measured spectrophotometrically (Tecan NanoQuant Infinite M200, Switzerland) at 295 nm under aerobic condition with slight modification. The reaction mixture contained 50 mM phosphate buffer (pH 7.5), 0.15 mM xanthine (substrate), and 0.3 U/mL enzymes (xanthine oxidase from buttermilk). Samples were prepared by dissolving 1 mg in 5% DMSO in MeOH which gives sample concentration of 144.0 μg/mL in assay. […] The absorption increment at 295 nm indicates the formation of […] of uric acid/min at 25°C. […] All determination was done in triplicate and half maximal concentration (IC50) values were calculated from the percentage of inhibition. XO inhibition activity was expressed as the percentage inhibition of XO as follows:(3) % of inhibition=AbsA−B−C−D/AbsA−B×100, where A is the negative control with B as the blank of A which is without the enzyme and the sample while C is the activity of the sample with enzyme with D as the blank of the sample without enzyme.

Row | IC50 DPPH [2] | IC50 ABTS+ [3] | IC50 ABTS+ ([3]; listed as wogonin) [µg/mL] | IC50 α-Glucosidase [5] | IC50 [6] [µM] | xanthine oxidase inhibitory effect (in words) ([7]; discussion) | IC50 ([7]; xanthine oxidase inhibition, 295 nm, mean ± SEM (n = 3), NA: not active) [µM] | Structure (SMILES) | radical scavenging activity by dot blot (intensity of yellow spots) [1] | FRAP antioxidant capacity [4] | FRAP (AAE μg) [4]
1 | >100^B µg/ml | 52.63 ± 2.99^D µg/ml | 52.65 ± 2.99 (≈ 185 µM) | >100^A µg/mg | > 352 | – | – | COc1c(O)cc(O)c2c(=O)cc(-c3ccccc3)oc12 [Wogonin, 5,7-Dihydroxy-8-methoxyflavone] | intermediate radical scavenging activity | 39.15 ± 1.68 AAE μg of ascorbic acid/g | 39.15 ± 1.68^E AAE μg
2 | >100^B µg/ml | >100^B µg/ml | – | >100^A µg/mg | – | low xanthine oxidase inhibitory activity | > 393 | O=c1cc(-c2ccccc2)oc2cc(O)cc(O)c12 [Chrysin, 5,7-Dihydroxyflavone] | intermediate radical scavenging activity | 21.38 ± 1.86 AAE μg of ascorbic acid/g | 21.38 ± 1.86^F AAE μg
3 | 68.24 ± 3.70^C µg/ml | 3.19 ± 0.15^F µg/ml | – | >100^A µg/mg | > 373 | – | – | COc1ccc2c(=O)cc(-c3ccccc3)oc2c1O [8-Hydroxy-7-methoxyflavone] | intermediate radical scavenging activity | 104.92 ± 8.29 AAE μg of ascorbic acid/g | 104.92 ± 8.29^D AAE μg
4 | 35.61 ± 1.68^D µg/ml | 1.24 ± 0.19^FG µg/ml | – | >100^A µg/mg | > 370 | – | – | O=c1cc(-c2ccccc2)oc2c(O)c(O)cc(O)c12 [Norwogonin, 5,7,8-Trihydroxyflavone] | intermediate radical scavenging activity | 177.37 ± 1.82 AAE μg of ascorbic acid/g | 152.14 ± 7.30^C AAE μg

Reference: publication PMC5727842, “Antioxidant and Antidiabetic Effects of Flavonoids: A Structure-Activity Relationship Based Study” (BioMed Research International, 2017)
